The Ki is a dissociation constant, usually derived from enzyme kinetics or from competition with a known ligand. In general, melting point refers to the temperature of the solid-liquid transition. By inhibition is commonly meant the relative decrease from the control value, in per cent.

Values joined by “and” are separate entries in the source; they are usually repeats but may differ in a detail not shown here. Equal entries are not always repeated.

This note sets out measurements from US6620828B2, “Thiazole compounds and pharmaceutical compositions for inhibiting protein kinases and methods for their use” (Agouron Pharmaceuticals, Inc., priority 1999, dated 2003).

Data set [1] has as its target T1, phosphorylated VEGF-R2Δ50 (Homo sapiens, UniProt P35968, DEL940-989/E990V).
T1 construct: VEGF-R2Δ50 contains residues 806-939 and 990-1171; made in house; host or cells: baculovirus/insect cells
In words: VEGF-R2 ELISA assay. It is filed as biochemical. The note with it: Table 2; * determined with ELISA assay; read-out: FLVK-P Ki. The essentials:
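Pre-autophosphorylated human VEGF-R2Δ50 (residues 806-939/990-1171, E990V; baculovirus) at 0.8 nM was run with 2 μM biotin-gastrin(1-17), 20 μM ATP, 26 mM MgCl2, 2 mM MnCl2, pH 7.5 Hepes. Phosphopeptide was captured on streptavidin and detected by anti-pTyr-HRP/ABTS at 405 nm; Ki came from activity at varying compound concentrations.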

In the next data set the target is T2, CHK1 (Homo sapiens, UniProt O14757).
T2 sequence (O14757 1-476): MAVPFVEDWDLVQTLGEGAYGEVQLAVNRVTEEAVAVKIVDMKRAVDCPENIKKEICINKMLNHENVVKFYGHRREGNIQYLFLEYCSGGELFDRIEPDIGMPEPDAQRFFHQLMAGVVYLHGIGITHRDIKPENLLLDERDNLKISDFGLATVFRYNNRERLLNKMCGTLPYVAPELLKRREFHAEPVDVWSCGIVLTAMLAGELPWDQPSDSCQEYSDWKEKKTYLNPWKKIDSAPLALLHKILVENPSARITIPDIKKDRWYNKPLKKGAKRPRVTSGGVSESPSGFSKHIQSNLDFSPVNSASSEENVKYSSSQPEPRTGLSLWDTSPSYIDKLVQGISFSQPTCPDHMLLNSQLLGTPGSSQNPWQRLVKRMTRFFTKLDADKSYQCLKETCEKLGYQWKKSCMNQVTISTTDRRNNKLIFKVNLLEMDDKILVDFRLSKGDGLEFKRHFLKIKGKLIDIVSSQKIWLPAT
In words: CHK1 high-throughput screening. It is filed as biochemical. The conditions noted are these: for % inhibition @ 20 μM: Table 4, repeated entries per example; for inhibition at 20 µM: read-out: % inhibition @ 20 μM, Table 4, repeated entries per example.

For another data set, the target named is T3, CDK4/Cyclin D3 complex (Homo sapiens, UniProt P11802).
T3 construct: made in house; host or cells: insect cells co-infected with baculovirus vectors
In words: CDK4/Cyclin D assay. The class given is biochemical. The note with it: Table 2. The essentials: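 Insect-cell-expressed CDK4/cyclin D3 (50 nM) phosphorylating His-tagged Rb fragment (residues 386-928) with 25 μM [^32P]ATP in HEPES pH 7.4, MgCl2, 2% DMSO; 20 min at 30 °C, EDTA stop. Filter-captured 32P by phosphorimager; apparent Ki from competitive or tight-binding inhibition fits.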

The next data set concerns the target CDK2/Cyclin A complex (Homo sapiens, UniProt P24941). In words: CDK2/Cyclin A assay. The class given is biochemical. The conditions noted are these: Table 2. The method, boiled down:
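Radiometric assay: 150 nM CDK2/cyclin A (insect-cell CDK2, truncated cyclin A) phosphorylates His-tagged Rb fragment (residues 386-928) with 25 μM ATP plus [32P]ATP, pH 7.4 HEPES, 2% DMSO, 30 °C for 20 min. Filter-captured product counted by phosphorimager; apparent Ki from competitive or tight-binding inhibition fits.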

The target in the next data set is T4, FAKcd409 (Homo sapiens, UniProt Q05397, P410T).
T4 construct: comprises residues methionine 409 to glutamate 689; made in house; host or cells: baculovirus vector expression system
In words: FAK HTS assay. The class given is biochemical. The note with it: 10 uM compound, HTS Delphia assay; for % inhibition of FAK: 10 µM.

For data set [2], the target named is T5, phosphorylated VEGF-R2Δ50 (FLVK-P) (Homo sapiens, UniProt P35968, DEL940-989/E990V).
T5 construct: VEGF-R2Δ50 contains residues 806-939 and 990-1171; made in house; host or cells: baculovirus/insect cells
In words: VEGF-R2 coupled spectrophotometric (FLVK-P) assay. The class given is biochemical. The conditions noted are these: Table 2; spectrophotometric assay. The essentials: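 Baculovirus-expressed human VEGF-R2Δ50 (residues 806-939/990-1171, E990V) was autophosphorylated with 3 mM ATP, 40 mM MgCl2 for 2 h at 4° C. ADP formation was coupled via PK/LDH to NADH oxidation, read at 340 nm, with 5.1 mM poly(E4Y1), 1 mM ATP, 25 mM MgCl2, Hepes pH 7.5. Ki came from activity across compound concentrations.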

For the next data set, the target named is T6, FL-CHK1 (Homo sapiens, UniProt O14757).
T6 construct: C-terminally His-tagged full-length human CHK1 (FL-CHK1); 6xHis (C); made in house; host or cells: baculovirus/insect cells
T6 sequence (O14757 1-476): T2 sequence (O14757 1-476)
In words: CHK1 assay. The class given is biochemical. The conditions noted are these: Table 2; read-out: CHK-1 Ki. The method, boiled down:
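Full-length human CHK1 with C-terminal 6×His tag, made in baculovirus/insect cells, 10 nM, phosphorylating 0.125 mM Syntide-2 with 0.15 mM ATP in 50 mM Tris pH 7.5, 25 mM MgCl2, 400 mM NaCl. PK/LDH-coupled NADH oxidation read at 340 nm. Ki from initial rates over varied compound concentrations.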

T3 sequence (P11802 whole entry): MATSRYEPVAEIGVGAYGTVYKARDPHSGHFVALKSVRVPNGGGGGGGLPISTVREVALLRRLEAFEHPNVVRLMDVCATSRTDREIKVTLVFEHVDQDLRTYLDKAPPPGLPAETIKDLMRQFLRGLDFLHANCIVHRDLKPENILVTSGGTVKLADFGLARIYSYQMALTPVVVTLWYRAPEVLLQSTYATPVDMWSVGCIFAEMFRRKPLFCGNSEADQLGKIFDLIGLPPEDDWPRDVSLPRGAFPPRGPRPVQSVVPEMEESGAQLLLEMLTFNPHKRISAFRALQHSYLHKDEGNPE
T3 sequence (P30281 whole entry partner): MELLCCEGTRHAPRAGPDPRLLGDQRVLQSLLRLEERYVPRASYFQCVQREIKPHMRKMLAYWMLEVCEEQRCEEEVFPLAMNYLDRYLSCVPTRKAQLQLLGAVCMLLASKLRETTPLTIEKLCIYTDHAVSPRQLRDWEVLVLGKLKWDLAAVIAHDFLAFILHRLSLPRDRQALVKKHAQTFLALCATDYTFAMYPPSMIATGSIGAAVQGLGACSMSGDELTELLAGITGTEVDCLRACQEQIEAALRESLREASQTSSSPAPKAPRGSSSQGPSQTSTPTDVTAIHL
T4 sequence (Q05397 409-689 P410T): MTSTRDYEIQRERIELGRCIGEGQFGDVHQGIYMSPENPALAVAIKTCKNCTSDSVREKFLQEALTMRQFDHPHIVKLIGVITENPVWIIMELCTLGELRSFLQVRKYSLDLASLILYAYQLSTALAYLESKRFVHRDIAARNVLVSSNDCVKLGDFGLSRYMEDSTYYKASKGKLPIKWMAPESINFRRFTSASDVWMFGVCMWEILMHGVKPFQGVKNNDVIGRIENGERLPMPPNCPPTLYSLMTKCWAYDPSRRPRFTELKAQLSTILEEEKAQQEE
T1 sequence (P35968 with tags, fused parts or gaps DEL940-989/E990V limits assumed): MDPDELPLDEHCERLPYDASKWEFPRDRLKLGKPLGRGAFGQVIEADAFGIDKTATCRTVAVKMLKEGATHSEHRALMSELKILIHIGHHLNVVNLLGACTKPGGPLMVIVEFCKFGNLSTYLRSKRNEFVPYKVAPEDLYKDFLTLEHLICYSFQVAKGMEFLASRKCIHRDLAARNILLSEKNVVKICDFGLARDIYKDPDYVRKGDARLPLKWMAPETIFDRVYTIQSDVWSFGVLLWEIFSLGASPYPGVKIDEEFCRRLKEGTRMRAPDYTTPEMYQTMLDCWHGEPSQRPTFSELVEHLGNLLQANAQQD
T5 sequence (P35968 with tags, fused parts or gaps DEL940-989/E990V limits assumed): as above

For the compound `Cc1nc(-c2sc(Nc3ccc(S(N)(=O)=O)cc3)nc2N)sc1Cc1ccc(F)cc1` [A(15), 4-[4′-Amino-5-(4-fluoro-benzyl)-4-methyl-[2,5′]bithiazolyl-2′-ylamino]-benzenesulfonamide], the melting point was 130 to 135 °C (dec.). In addition, the Ki in data set [1] was 25 µM. The “% inhibition @ 20 μM” value at CHK1 is −4.1% and −1.2%. Besides, the Ki at CDK4/Cyclin D3 complex stood at 7.8 µM. In addition, the Ki at CDK2/Cyclin A complex amounted to 2.7 µM. The “% inhibition of FAK” value on FAKcd409 is −9% and −7% and 0%.
`Nc1nc(Nc2ccc(S(N)(=O)=O)cc2)sc1-c1nc(C(=O)c2ccccc2)cs1` [A(67), 4-(4′-Amino-4-benzoyl-[2,5′]bithiazolyl-2′-ylamino)-benzenesulfonamide]: the melting point was 255 to 260 °C (dec.). In addition, the Ki on CDK4/Cyclin D3 complex is 0.67 µM. The Ki in data set [2] stood at 0.11 µM. The Ki on CDK2/Cyclin A complex came out at 0.015 µM. Further, at FAKcd409, the “% inhibition of FAK” value was −29% and −33%.
For `COc1ccc(/C=C/c2csc(-c3sc(Nc4ccc(S(N)(=O)=O)cc4)nc3N)n2)cc1O` [A(65), 4-{4′-Amino-4-[2-(3-hydroxy-4-methoxy-phenyl)-ethenyl]-[2,5′]bithiazolyl-2′-ylamino}-benzenesulfonamide], the melting point is 190 to 193 °C (dec.). For the same compound, the “% inhibition @ 20 μM” value at CHK1 is 3.2% and 2.5% and 8.2%. For the same compound, the Ki on CDK4/Cyclin D3 complex was found to be 2.1 µM. In addition, at CDK2/Cyclin A complex, the Ki came to 0.15 µM. At FAKcd409, the “% inhibition of FAK” value was −31% and −39%.
As to `COc1cc(Nc2nc(N)c(-c3nc(-c4ccc(F)cc4F)cs3)s2)cc(OC)c1OC` [A(9), 4-(2,4-Difluoro-phenyl)-N^2′-(3,4,5-trimethoxy-phenyl)-[2,5′]bithiazolyl-2′,4′-diamine], the melting point is 180 to 183 °C (dec.). Also, the Ki in data set [1] was found to be 1.9 µM. For the same compound, on CDK4/Cyclin D3 complex (at 100 (printed 100 or 100 μM)), the inhibition at 100 µM was below 0%. Besides, the “CDK2 % inhibition @ 100” value on CDK2/Cyclin A complex (at 100 (printed 100 or 100 μM)) is listed as 29% @. For the same compound, the “% inhibition of FAK” value on FAKcd409 is −6% and −5% and 4%.
On to `COc1cc(Nc2nc(N)c(-c3nc(-c4cc(O)ccc4O)cs3)s2)cc(OC)c1OC` [A(25), 2-(4′-Amino-2′-(3,4,5-trimethoxy-phenylamino)-[2,5′]bithiazolyl-4-yl]-benzene-1,4-diol], for which the melting point is 208 to 212 °C (dec.). Moreover, in data set [1], the Ki is 0.1 µM. The inhibition at 20 µM at CHK1 came out at 19.7%. Further, the inhibition constant (Ki) at FL-CHK1 was 0.29 µM. Further, on FAKcd409, the “% inhibition of FAK” value was 60% and 47% and 57% and 90% and 88%.
As for `COc1cc(Nc2nc(N)c(-c3nc(-c4cccc(C(=O)Nc5ccc6nc(C)ccc6c5)c4)cs3)s2)cc(OC)c1OC` [A(35), 3-[4′-Amino-2′-(3,4,5-trimethoxy-phenylamino)-[2,5′]bithiazolyl-4-yl]-N-(2-methyl-quinolin-6-yl)-benzamide], the Ki in data set [1] came out at 390 µM. Also, at FAKcd409, the “% inhibition of FAK” value was −5% and −9% and −10%.
In the case of `C=CCOc1cc(O)cc(-c2csc(-c3sc(Nc4ccc(S(N)(=O)=O)cc4)nc3N)n2)c1` [A(62), 4-[4-(3-Allyloxy-5-hydroxyphenyl)-4′-amino-[2,5′]bithiazolyl-2′-ylamino]-benzenesulfonamide], the melting point was 200 to 202 °C. Further, at CHK1, the “% inhibition @ 20 μM” value was determined as 12.2% and the inhibition at 20 µM was 7.4%. Further, the Ki at CDK4/Cyclin D3 complex was determined as 4.4 µM. The Ki on CDK2/Cyclin A complex came out at 0.53 µM. For the same compound, at FAKcd409, the inhibition at 10 µM was 7% and the “% inhibition of FAK” value is 6%.
Regarding `Nc1nc(Nc2ccc(S(N)(=O)=O)cc2)sc1-c1nc(/C=C/C=C/c2ccccc2)cs1` [A(66), 4-[4′-Amino-4-(4-phenyl-buta-1,3-dienyl)-[2,5′]bithiazolyl-2′-ylamino]-benzenesulfonamide], the melting point is 193 to 195 °C (dec.). In addition, at CHK1, the “% inhibition @ 20 μM” value was 3.6% and 6.6% and 9.1%. Further, at CDK2/Cyclin A complex, the Ki came to 1.1 µM. Also, the “% inhibition of FAK” value on FAKcd409 is −38% and −39%.
